Groups on a side chain read outwards from the residue. No end group written: not given here. BMPH = maleimide-and-hydrazide crosslinker; PPCN hydrogel = not defined here
Columns and labels:
[1] = tested on: human dermal fibroblasts and human epithelial keratinocytes; experiment: Self-assembled monolayer (SAM) cell adhesion assay; assay type: cell-based; settings: HDFs and HEKas
Description: Cysteine-terminated peptides were synthesized manually on Fmoc-Rink amide MHBA resin using a standard solid phase peptide synthesis protocol. They were purified using reverse-phase HPLC with a C18 column, and the final products were characterized by matrix-assisted laser desorption/ionization time of flight mass spectrometry (MALDI-TOF MS). Self-assembled monolayer cell adhesion assay was performed (ref 56; incorporated by reference in its entirety). Maleimide-terminated alkanethiol was self-assembled on the gold surfaces to form the well-organized monolayer. Known amount of characterized Cysteine-terminated peptides were dissolve in 0.1% trifluoroacetic acid solution and incubate with the surface to allow peptide absorption on the surface via thiol-maleimide reaction. The resulting surfaces were characterized by MALDI-TOF MS for peptide adsorption before being used for HDFs and HEKas adhesion studies. The adherent cells were counted 2 hours after the initial seeding. […]
The synthesized peptides were immobilized onto SAM chips by incubating the chips with 100 μM peptide solution in PBS at room temperature for 1 hr. […] Peptide chips were then mounted with Vectashield+DAPI and imaged on a Nikon Eclipse TE2000-U inverted fluorescence microscope. The number of cells per field of view was counted using ImageJ software. […]

HDFs [2] = experiment: PicoGreen total DNA quantification (proliferation in 3D culture); assay type: cell-based, human; settings: HDFs in gel, over the course of 10 days
Description: HDF encapsulated hydrogel scaffold samples were prepared and cultured using the same method as the in vitro 3D cell culture with 10 K cells per 50 μl hydrogel per sample. At each time point, after removing the medium, the samples were cooled on ice, and the cells were lysed by PBS-3% Triton-X. The Quant-iT PicoGreen dsDNA assay kit (Life Technologies) was employed according to the manufacturer's protocol, and the results were read in triplicates. Samples of […] were accessed using microplate reader (Tecan, Männedorf, Switzerland); fluorescence was quantified at 520 nm with excitation at 480 nm.

[3] = tested on: integrin α3 and α6 on HDFs; experiment: Proliferation inhibition with anti-integrin α3 and α6 antibodies; assay type: cell-based, human; settings: 5 days
Description: The mouse monoclonal antibody against human integrin α6 and α3 were purchased from Santa Cruz (Dallas, T A), and dialyzed with 10,000 MWCO Dialysis Cassettes dialysis cassette (Thermo Scientific) overnight to remove the sodium azide. […] Before cell encapsulation, HDFs were pre-incubated in suspension with corresponding anti-integrin antibodies (final concentration 10 μg/mL) for 15 min at 37° C. Then the pre-treated HDFs (1×10^4 cells per 50 μL scaffold per well) were incubated on the ultra-low attachment plate (Coring, Coring, NY) for 5 days at 37° C. in 5% CO2. Anti-integrin antibodies treatments were also added in the culture media for the corresponding groups (10 μg/mL), and the media was changed every other day. After 5 days of incubation, total DNA content within each scaffold was quantified using PicoGreen DNA quantification assay as mentioned above.

HDFs [4] = experiment: Cell cycle analysis by flow cytometry with propidium iodide; assay type: cell-based, human; settings: HDFs in gel
Description: A flow cytometric analysis, with propidium iodide (PI), was performed in order to measure the cell cycle activity. At each time point, cell encapsulated scaffolds were liquefied, and the cells were extracted via centrifuging. The cells were then washed with ice-cold PBS, and fixed with 70% ice-cold ethanol for 1 h before repeated washing with PBS and re-suspension in PBS with 0.5 mg/mL Rnase A (Thermo Fisher Scientific). After 1 h incubation, the cellular DNA was then stained with PI (50 μg/mL) for 20 min while protected from the light at 4° C. The relative DNA concentration of the stained cells was measured using a BD LSRII flow cytometer (Becton Dickinson, San Jose, Calif.).

Human dermal fibroblasts = experiment: In vitro 3D cell culture, live/dead stain, confocal imaging of cell spreading; assay type: cell-based; settings: HDFs
Description: Cell culture medium (KGM-Gold for HEKa, DMEM+10% FBS for HDF) was then added to each well, and cells were cultured at 37° C. and 5% CO2. After 5 or 10 days, the gels were washed twice with warm 1×PBS, and stained with live/dead stain (2 uM calcein AM and 2 uM ethidium homodimer-1) at 37° C. for 15 min. The samples were then washed twice with warm 1×PBS and imaged on a Nikon C2 Confocal microscope.

db/db mice wound tissue = experiment: Histology and immunofluorescence of regenerated wound tissue; assay type: in vivo, mouse
Source text: Upon full closure of the wounds (for the first batch study) or 10 days after the initial wound surgery (for the second batch study), animals were euthanized and the regenerated wound tissue was excised with a 10-mm biopsy punch (Acuderm, Fort Lauderdale, Fla.), fixed using 4% paraformaldehyde and embedded by paraffin. The tissues were then sectioned and processed for hematoxylin and eosin (H&E) staining to measure granulation tissue thickness, and the epithelial gap histomorphometrically. The granulation tissue thickness and epithelial gap was measured based on 5 different H&E images for each group by blinded observer using ImageJ. The tissue sections were also stained for Keratin 10, Integrin α3 or F4/80 (Santa Cruz, Dallas, Tex.) The secondary antibodies used were either conjugated to AlexaFluor488 or AlexaFluor555 (Invitrogen, Carlsbad, Calif.).

[5] = tested on: db/db mice full-thickness wound; experiment: Diabetic splinted excisional wound healing model, wound closure; assay type: in vivo, mouse
Description: To prevent skin contraction, paired pre-sterilized doughnut-shaped splints (10-mm inner diameter; 12-mm outer diameter) made from 0.5-mm-thick acrylate tape (3M, St. Paul, Minn.) were attached to the left and right dorsal sides of the mouse with Vetbond (3M) and interrupted 6-0 nylon sutures (Ethicon, Cincinnati, Ohio) after depilation. A 6-mm circular, full-thickness wound was made in the center of each splinted area. 40 μl of gel solution was applied to each wound bed. A transparent sterile occlusive dressing TegaDerm™ (3M) was then placed over the wound and the splint. Digital images of the wound area were taken every other day, and quantified in ImageJ by normalizing the wound area to the known splint area at each time point. Hydrogel dressings were reapplied on day 6, after gently rinsing the wound with cold 1× PBS.

| Substance | cell adhesion on SAMs presenting the peptide [1] | cell proliferation rate (total DNA content) (HDFs [2]) | cell proliferation (total DNA) under complete blocking ([3]; both anti-α3 and anti-α6, 10 μg/mL) | cell proliferation (total DNA) under partial blocking ([3]; only anti-α3 or anti-α6, 10 μg/mL) | S phase percentage (HDFs [4]; day 5) [%] | S phase percentage (HDFs [4]; day 10) [%] | cell spreading in 3D culture (Human dermal fibroblasts; day 5) | cell spreading in 3D culture (Human dermal fibroblasts; day 10) | granulation tissue thickness (db/db mice wound tissue; by the time of closure, compared with PPCN, P-RGD and P-IP groups) | wound histology at day 10 within the same animal (db/db mice wound tissue; db/db mice, day 10, P-A5G81 side vs P-IP side) | epidermal gap relative to that of the P-IP control wounds (db/db mice wound tissue; db/db mice, day 10, after two applications) [%] | epithelial gap (db/db mice wound tissue; db/db mice, day 30) [μm] | integrin α3 positive cells in wound tissue (db/db mice wound tissue; db/db mice, day 30) | wound opening relative to the initial wound size (db/db mice wound tissue; db/db mice, day 30) | macrophage marker F4/80 staining (db/db mice wound tissue; db/db mice, day 30, foreign body response) | Keratin 10 staining, epithelium structure (db/db mice wound tissue; db/db mice, day 30, wound centre) | time to complete wound closure [5] [days] | percent wound closure ([5]; day 10) [%] | complete closure faster than P-RGD ([5]; versus P-RGD) [days] | complete closure faster than PPCN and P-IP ([5]; versus PPCN and P-IP) |
| --- | --- | --- | --- | --- | --- | --- | --- | --- | --- | --- | --- | --- | --- | --- | --- | --- | --- | --- | --- | --- |
| A5G81: 12 amino acid laminin α5 globular domain derived peptide AGQWHRVSVRWG (listed as Mus musculus) | excellent cell adhesion properties | – | – | – | – | – | – | – | – | – | – | – | – | – | – | – | – | – | – | – |
| IP: inactive form of A5G81 (WHRVSVC), negative control (WHRVSVC-NH2) [reference compound] | very low cell adhesive properties | – | – | – | – | – | – | – | – | – | – | – | – | – | – | – | – | – | – | – |
| P-A5G81: PPCN hydrogel conjugated via BMPH linker to cysteine-terminated A5G81 peptide (AGQWHRVSVRWGC([BMPH-PPCN hydrogel])-NH2; reading uncertain; also: conjugated to PPCN hydrogel via BMPH linker at C-terminal Cys) | – | higher cell proliferation rate | close to the unfunctionalized PPCN scaffold | partial decrease of the cell proliferation | 21 | 26.6 | began to spread | fully elongated with typical fibroblast morphology | significantly thicker | thick granulation tissue was already prominent | 25 | 340 | significant amount of α3 positive cells | around 5% | minimum amount of macrophages | multi-layer epithelium structure | 21 | 45.3 | 3 | one week faster |
